In the NIST ThermoML archive (doi:10.1016/j.jct.2008.08.013):

Assay: xn = mol fraction of the nth substance listed
Settings: 101 kPa, Liquid, Vibrating tube method

Nc1ccccc1 [aniline] + ClCCl
mass density [kg/m3]
Settings	288.15 K	293.15 K	298.15 K	303.15 K
x2 = 0.0218	1030.69	1025.78	1021.79	1017.43
x2 = 0.1003	1048.42	1043.36	1039.19	1034.68
x2 = 0.2004	1072.39	1067.17	1062.72	1057.97
x2 = 0.2507	1085.02	1079.67	1075.06	1070.21
x2 = 0.2992	1097.6	1092.14	1087.38	1082.37
x2 = 0.3502	1111.25	1105.64	1100.68	1095.52
x2 = 0.3985	1124.6	1118.83	1113.68	1108.38
x2 = 0.4998	1153.99	1147.9	1142.28	1136.65
x2 = 0.5529	1170.24	1164	1158.09	1152.21
x2 = 0.6023	1185.94	1179.46	1173.3	1167.19
x2 = 0.6504	1201.8	1195.11	1188.66	1182.34
x2 = 0.6992	1218.48	1211.56	1204.8	1198.22
x2 = 0.7506	1236.69	1229.48	1222.36	1215.59
x2 = 0.8003	1254.94	1247.49	1239.98	1232.77
x2 = 0.8997	1293.47	1285.36	1277.01	1269.11
x2 = 0.9298	1305.66	1297.3	1288.69	1280.69
x2 = 0.9505	1314.14	1305.64	1296.8	1288.52
x2 = 0.9799	1326.37	1317.62	1308.49	1299.98

ClCCl [dichloromethane] + O=[N+]([O-])c1ccccc1
mass density [kg/m3]
Settings	288.15 K	293.15 K	298.15 K	303.15 K
x1 = 0.021	1213.16	1204.27	1199.65	1195.1
x1 = 0.1053	1219.99	1211.21	1206.52	1201.87
x1 = 0.2003	1228.35	1219.76	1214.95	1210.13
x1 = 0.2499	1233.02	1224.51	1219.62	1214.69
x1 = 0.3003	1238.01	1229.63	1224.61	1219.55
x1 = 0.3521	1243.35	1235.09	1229.95	1224.73
x1 = 0.4025	1248.78	1240.64	1235.37	1229.98
x1 = 0.4492	1254.01	1245.99	1240.56	1235.01
x1 = 0.4975	1259.65	1251.71	1246.14	1240.37
x1 = 0.5512	1266.13	1258.32	1252.51	1246.51
x1 = 0.5995	1272.2	1264.47	1258.48	1252.21
x1 = 0.6495	1278.7	1271.04	1264.8	1258.26
x1 = 0.6999	1285.45	1277.91	1271.39	1264.55
x1 = 0.7496	1292.42	1284.93	1278.12	1270.91
x1 = 0.799	1299.65	1292.18	1285	1277.46
x1 = 0.8501	1307.44	1299.97	1292.47	1284.49
x1 = 0.8975	1315.12	1307.6	1299.69	1291.27
x1 = 0.9798	1329.58	1321.91	1313.24	1303.98
